These results are taken from US6180621A, “Method and treatment using 1-methylcarbapenem derivatives as an anti-helicobacter pylori agent” (Sankyo Company, Limited, priority 1996, dated 2001).

Molecules are shown by their SMILES. Values after ≈ are worked out from the molar mass of the structure shown. Read-outs that look alike come from different tables or passages of the source.

Assay [1] concerns helicobacter pylori. The note with it: background, reported; cited from earlier work.
Assay [2] deals with helicobacter pylori. Put plainly: In vitro activity against helicobacter pylori (MIC), agar plate. It is filed as cell-based. The following applies: for MIC: Helicobacter pylori, 72 h, read-out: minimum inhibitory concentration (MIC). The protocol:
In vitro activity against helicobacter pylon (MIC; μg/ml)
Helicobacter pylori (H. pylori) from storage was smeared on a 7%-equine-defibrinated-blood-added brain heart infusion agar (BHIA) plate and cultured at 37° C. for 72 hours under microaerophilic and wet conditions. The colonies thus grown were picked and suspended in physiological saline to prepare a culture solution of 10^8 CFU/ml (viable microbe cell number per ml). The resulting culture solution was diluted to 10 to 50-fold with physiological saline, and one spot (about 10 μl) of the solution was inoculated on each of medicament-containing and medicament-free BHIA plates. Each of the plates was cultured at 37° C. for 72 hours under microaerophilic and wet conditions and the minimum inhibitory concentration (MIC: μg/ml) at which the growth of the colonies was inhibited was measured.

The subject of assay [3] is helicobacter pylori 9470 strain. Briefly: Therapeutic effects for nude mouse infected with helicobacter pylori (viable microbe cell number, CFU/stomach). It is filed as in vivo. The following applies: oral, once a day for 4 days, nude mice. The method, then:
Therapeutic effects for nude mouse infected with helicobacter pylon Bacteria (helicobacter pylori 9470 strain) used for the test, which were cultured for 48 hours in a 2%-fetal-calf-serum-added brucella broth, were centrifuged. After removal of the supernatant, the residue was re-suspended in a 1/10 amount of a brucella broth. The resulting suspended solution was orally administered to each of three to five nude mice in an amount of […] per mouse. 10 days after the infection, administration of a medicament was started. A 0.5% tragacanth suspension of a medicament was orally administered for 4 days through an oral catheter at a dose of 0.3 ml/mouse, once a day. On the day after the final administration, the stomach was extirpated, homogenized and then diluted. […] The significant difference of Medicament B(2), Medicament C(1) or C(2) is p<0.01 (vs the control group).

Setting [4] is: H. pylori strain 9472, 37° C., 72 hours, microaerophilic, BHIA plate.
Setting [5] is: H. pylori strain 9824, 37° C., 72 hours, microaerophilic, BHIA plate.
Setting [6] is: H. pylori strain 9828, 37° C., 72 hours, microaerophilic, BHIA plate.
Setting [7] is: H. pylori strain 9470, 37° C., 72 hours, microaerophilic, BHIA plate.
The mark [8] stands for this setting: H. pylori strain 9474, 37° C., 72 hours, microaerophilic, BHIA plate.

In the case of `CN(C)C1C(=O)C(C(N)=O)=C(O)C2(O)C(=O)C3=C(O)c4c(O)cccc4C(C)(O)C3CC12` (stereo not shown) [tetracycline], in the assay on helicobacter pylori [1], the “effect against helicobacter pylori” value is reported as “effective against helicobacter pylori”.

With `C[C@@H](O)[C@H]1C(=O)N2C(C(=O)[O-])=C(S[C@H]3CC(=O)N(C)C3)[C@H](C)[C@H]12.[Na+]` [Compound 3, sodium (1R,5S,6S)-2-[(4S)-1-methyl-2-oxo-4-pyrrolidinylthio]-6-[(1R)-1-hydroxyethyl]-1-methyl-1-carbapen-2-em-3-carboxylate], the “minimum inhibitory concentration (MIC)” value in the assay on helicobacter pylori [2] (setting [4]), in the assay on helicobacter pylori [2] (setting [5]) and in the assay with helicobacter pylori [2] (setting [6]) was at most 6 ng/mL in each case. Moreover, the MIC with helicobacter pylori [2] is at most 6 ng/mL.

For the molecule `CC[C@H]1OC(=O)[C@H](C)[C@@H](O[C@H]2C[C@@](C)(OC)[C@@H](O)[C@H](C)O2)[C@H](C)[C@@H](O[C@@H]2O[C@H](C)C[C@H](N(C)C)[C@H]2O)[C@](C)(OC)C[C@@H](C)C(=O)[C@H](C)[C@@H](O)[C@]1(C)O` [CAM, clarithromycin], the MIC in the assay on helicobacter pylori [2] (setting [7]) was determined as 6 ng/mL (≈ 0.00802 µM); with helicobacter pylori [2] (setting [4]), 6 ng/mL (≈ 0.00802 µM); in the assay with helicobacter pylori [2] (setting [8]), 25 ng/mL (≈ 0.0334 µM); in the assay with helicobacter pylori [2] (setting [5]), 1500 ng/mL (≈ 2.01 µM); in the assay with helicobacter pylori [2] (setting [6]) it was 6250 ng/mL (≈ 8.36 µM). Moreover, in assay [3] (10 mg/kg), the “significant difference (p) vs the control group, viable microbe cell number (CFU/stomach)” value is under 0.01. Moreover, the “effect against helicobacter pylori” value in the assay on helicobacter pylori [1] is given as “effective against helicobacter pylori”.

Consider `CC1(C)S[C@@H]2[C@H](NC(=O)[C@H](N)c3ccc(O)cc3)C(=O)N2[C@H]1C(=O)O` [AMPC, amoxicillin], for which the MIC in the assay on helicobacter pylori [2] (setting [7]) was 12 ng/mL (≈ 0.0328 µM); with helicobacter pylori [2] (setting [4]), 25 ng/mL (≈ 0.0684 µM); with helicobacter pylori [2] (setting [8]), 50 ng/mL (≈ 0.137 µM); in the assay on helicobacter pylori [2] (setting [5]), 390 ng/mL (≈ 1.07 µM); with helicobacter pylori [2] (setting [6]), 200 ng/mL (≈ 0.547 µM). The “effect against helicobacter pylori” value with helicobacter pylori [1] was “effective against helicobacter pylori”.

On to `C[C@@H](O)[C@H]1C(=O)N2C(C(=O)OCOC(=O)C(C)(C)C)=C(S[C@H]3CNC(=O)C3)[C@H](C)[C@H]12` [Compound 4, pivaloyloxymethyl (1R,5S,6S)-2-[(4R)-2-oxo-4-pyrrolidinylthio]-6-[(1R)-1-hydroxyethyl]-1-methyl-1-carbapen-2-em-3-carboxylate], for which the “significant difference (p) vs the control group, viable microbe cell number (CFU/stomach)” value in assay [3] (1 mg/kg) and in assay [3] (10 mg/kg) was under 0.01 in each case.

`O=C([O-])CC(O)(CC(=O)[O-])C(=O)[O-].[Bi+3]` [bismuth citrate]: the “effect against helicobacter pylori” value in the assay with helicobacter pylori [1] is “effective against helicobacter pylori”.

For `Cc1ncc([N+](=O)[O-])n1CCO` [metronidazole], the “effect against helicobacter pylori” value with helicobacter pylori [1] was “effective against helicobacter pylori”.

For the molecule `C[C@@H](O)[C@H]1C(=O)N2C(C(=O)O)=C(S[C@@H]3CC(=O)N(C)C3)[C@H](C)[C@H]12` [Compound 2], the MIC is at most 0.6 ng/mL in the assay with helicobacter pylori [2] (setting [7]), at most 6 ng/mL in the assay with helicobacter pylori [2] (setting [4]), at most 6 ng/mL in the assay on helicobacter pylori [2] (setting [5]) and at most 6 ng/mL in the assay on helicobacter pylori [2] (setting [6]).

Take `C[C@@H](O)[C@H]1C(=O)N2C(C(=O)[O-])=C(S[C@H]3CNC(=O)C3)[C@H](C)[C@H]12.[Na+]` [Compound 1, sodium (1R,5S,6S)-2-[(4R)-2-oxo-4pyrrolidinylthio]-6-[(1R)-1-hydroxyethyl]-1-methyl-1-carbapen-2-em-3-carboxylate]: the “minimum inhibitory concentration (MIC)” value with helicobacter pylori [2] (setting [4]), in the assay on helicobacter pylori [2] (setting [8]), in the assay on helicobacter pylori [2] (setting [5]) and in the assay with helicobacter pylori [2] (setting [6]) was at most 6 ng/mL in each case. For the same molecule, the MIC in the assay with helicobacter pylori [2] is at most 6 ng/mL.
